Laboratory results taken from ChEMBL document CHEMBL4739716, “Gpr139 receptor modulators” (2020).

How the values were obtained:
[1] = target: T1, Probable G-protein coupled receptor 139 (Homo sapiens) (UniProt Q6DWJ6); assay: Agonist activity at human GPR139 expressed in CHO-K1 cells assessed as induction of beta-arrestin 2 recruitment incubated for 90 mins by PathHunter assay relative to JNJ63533054; assay type: cell-based
T1 sequence (whole entry): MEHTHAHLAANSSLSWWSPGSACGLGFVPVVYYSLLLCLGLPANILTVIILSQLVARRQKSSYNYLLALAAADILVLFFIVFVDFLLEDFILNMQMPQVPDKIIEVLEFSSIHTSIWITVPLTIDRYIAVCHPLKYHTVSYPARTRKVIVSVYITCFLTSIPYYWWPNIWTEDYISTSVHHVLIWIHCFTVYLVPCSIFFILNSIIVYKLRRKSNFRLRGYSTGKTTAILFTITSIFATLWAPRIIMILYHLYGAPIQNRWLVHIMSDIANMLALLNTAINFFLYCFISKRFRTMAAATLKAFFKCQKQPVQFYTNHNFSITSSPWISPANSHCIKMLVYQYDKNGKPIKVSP

[2] = target: T2, Probable G-protein coupled receptor 139 (Homo sapiens, UniProt Q6DWJ6); assay: Agonist activity at human GPR139 expressed in CHO-K1 cells assessed as induction of beta-arrestin 2 recruitment incubated for 90 mins by PathHunter assay; assay type: cell-based
T2 sequence (Q6DWJ6 whole entry): T1 sequence (whole entry)

[3] = target: T1, Probable G-protein coupled receptor 139 (Homo sapiens); assay: Agonist activity at human GPR139 expressed in CHO-K1 cells assessed as increase in calcium flux by calcium 5 dye based FLIPR assay relative to JNJ63533054; assay type: functional, cell-based; settings: filed as agonist
[4] = target: T3, Probable G-protein coupled receptor 139 (Rattus norvegicus) (UniProt P0C0W8); assay: Agonist activity at rat GPR139 expressed in CHO-K1 cells assessed as increase in calcium flux by calcium 5 dye based FLIPR assay relative to JNJ63533054; assay type: cell-based
T3 sequence (whole entry): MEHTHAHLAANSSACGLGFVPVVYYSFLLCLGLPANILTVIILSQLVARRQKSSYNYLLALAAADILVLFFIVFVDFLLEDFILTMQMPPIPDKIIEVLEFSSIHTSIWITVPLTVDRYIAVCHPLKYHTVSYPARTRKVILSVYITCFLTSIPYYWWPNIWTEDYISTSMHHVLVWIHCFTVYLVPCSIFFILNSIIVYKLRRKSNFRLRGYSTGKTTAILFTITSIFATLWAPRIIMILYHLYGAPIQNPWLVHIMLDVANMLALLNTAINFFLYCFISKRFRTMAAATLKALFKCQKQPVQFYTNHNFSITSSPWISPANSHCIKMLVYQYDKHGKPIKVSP

[5] = target: T2, Probable G-protein coupled receptor 139; assay: Agonist activity at human GPR139 expressed in CHO-K1 cells assessed as increase in calcium flux by calcium 5 dye based FLIPR assay; assay type: functional, cell-based
[6] = target: T4, Probable G-protein coupled receptor 139 (Rattus norvegicus, UniProt P0C0W8); assay: Agonist activity at rat GPR139 expressed in CHO-K1 cells assessed as increase in calcium flux by calcium 5 dye based FLIPR assay; assay type: cell-based
T4 sequence (P0C0W8 whole entry): T3 sequence (whole entry)

SMILES	Emax [1]	EC50 [2]	Emax [3]	Emax ([4]; filed as agonist)	EC50 ([5]; cho-k1)	EC50 ([6]; cho-k1)	Emax ([1]; filed as agonist)	EC50 ([2]; cho-k1)	EC50 [6]	EC50 [5]	Emax [4]
Cc1ccc([C@H](C)NC(=O)Cn2nc3cccnn3c2=O)cc1	25%	≥ 100 nM	> 80%	50%	10 nM	1 nM					
C[C@H](NC(=O)Cn1nc2cc(OC3COC3)ccn2c1=O)c1ccc(OC(F)(F)F)cc1		≥ 100 nM	> 80%	50%	1 nM	1 nM	> 80%				
C[C@H](NC(=O)Cn1nc2cc(NC3COC3)ccn2c1=O)c1ccc(Cl)c(F)c1			> 80%	> 80%	1 nM		> 80%	1 nM	< 1 nM		
CC(C)[C@H](NC(=O)Cn1nc2cccnn2c1=O)c1ccc(Cl)c(F)c1	< 25%	≥ 100 nM	50%	50%	1 nM	1 nM					
COc1cccn2c(=O)n(CC(=O)N[C@@H](C)c3ccc(C)cc3)nc12		< 1 nM	> 80%	50%		1 nM	50%			< 1 nM	
C[C@H](NC(=O)Cn1nc2ccc(C3CC3)nn2c1=O)c1ccc(OC(F)(F)F)cc1	25%		> 80%		1 nM			10 nM	≥ 100 nM		< 25%
Cc1ccc2nn(CC(=O)N[C@@H](C)c3ccc(Cl)cc3)c(=O)n2n1	25%		> 80%	50%	1 nM	1 nM		1 nM			
C[C@H](NC(=O)Cn1nc2ccccn2c1=O)c1ccc(F)cc1	< 25%	≥ 100 nM	50%		10 nM				≥ 100 nM		25%
Cc1ccc([C@H](C)NC(=O)Cn2nc3cc(Cl)ccn3c2=O)cc1			> 80%	50%		1 nM	50%	1 nM		< 1 nM	
Cc1ccc([C@H](C)NC(=O)Cn2nc3c(C)ccnn3c2=O)cc1F			> 80%	> 80%		1 nM	> 80%	10 nM		< 1 nM	
C[C@H](NC(=O)Cn1nc2cccnn2c1=O)c1ccc(Cl)cc1	25%	≥ 100 nM	> 80%	50%	1 nM	10 nM					
C[C@H](NC(=O)Cn1nc2c(NC3COC3)ccnn2c1=O)c1ccc(Cl)c(F)c1			> 80%	> 80%		1 nM	> 80%	10 nM		< 1 nM	
C[C@H](NC(=O)Cn1nc2cc(Cl)ccn2c1=O)c1ccc(Cl)c(F)c1			> 80%	> 80%			> 80%	1 nM	< 1 nM	< 1 nM	
C[C@H](NC(=O)Cn1nc2cccnn2c1=O)c1ccc(Cl)c(F)c1			> 80%	> 80%	1 nM	1 nM	50%	10 nM			
Cc1cc(Cl)ccc1[C@H](C)NC(=O)Cn1nc2ccccn2c1=O			> 80%	50%	1 nM	1 nM	> 80%	1 nM			
Cc1ccc([C@H](C)NC(=O)Cn2nc3ccccn3c2=O)cc1			> 80%	50%	1 nM	1 nM	50%	10 nM			
C[C@H](NC(=O)Cn1nc2ccccn2c1=O)c1ccc(Cl)c(F)c1			> 80%	> 80%	1 nM		> 80%	1 nM	< 1 nM		

SMILES	Emax [1]	EC50 [2]	Emax [3]	Emax ([4]; filed as agonist)	EC50 ([5]; cho-k1)	EC50 ([6]; cho-k1)	Emax ([1]; filed as agonist)	EC50 ([2]; cho-k1)	EC50 [6]	EC50 [5]	Emax [4]
Cc1cc(Cl)ccc1[C@H](C)NC(=O)Cn1nc2ncccn2c1=O		≥ 100 nM	> 80%		1 nM		50%		≥ 100 nM		25%
C[C@H](NC(=O)Cn1nc2cc(Cl)ccn2c1=O)c1ccc(OC(F)(F)F)cc1		< 1 nM	> 80%	50%			50%		< 1 nM	< 1 nM	
C[C@H](NC(=O)Cn1nc2cccc(N3CCN(C)CC3)n2c1=O)c1ccc(OC(F)(F)F)cc1		≥ 100 nM	> 80%		1 nM		50%		≥ 100 nM		25%
C[C@H](NC(=O)Cn1nc2cccnn2c1=O)c1ccc(OC(F)(F)F)c(F)c1			> 80%	50%	1 nM	1 nM	50%	10 nM			
COc1ccn2c(=O)n(CC(=O)N[C@@H](C)c3ccc(Cl)c(F)c3)nc2c1			> 80%	50%			> 80%	1 nM	< 1 nM	< 1 nM	
C[C@H](NC(=O)Cn1nc2cc(N3CCOCC3)ccn2c1=O)c1ccc(OC(F)(F)F)cc1		≥ 100 nM	> 80%	> 80%	1 nM	1 nM	50%				
C[C@H](NC(=O)Cn1nc2cccnn2c1=O)c1ccc(C2CC2)c(F)c1		≥ 100 nM	> 80%	50%	1 nM	1 nM	50%				
C[C@H](NC(=O)Cn1nc2ccc(F)cn2c1=O)c1ccc(Cl)cc1			> 80%	50%			50%	1 nM	< 1 nM	< 1 nM	
Cc1cc([C@H](C)NC(=O)Cn2nc3cccnn3c2=O)ccc1Cl		≥ 100 nM	> 80%	> 80%	1 nM	1 nM	50%				
C[C@H](NC(=O)Cn1nc2ccc(Cl)nn2c1=O)c1ccc(OC(F)(F)F)cc1	25%		50%		1 nM	1 nM		10 nM			25%
C[C@H](NC(=O)Cn1nc2ccc(F)cn2c1=O)c1ccc(Cl)c(F)c1			> 80%	> 80%			> 80%	1 nM	< 1 nM	< 1 nM	
C[C@@H](NC(=O)Cn1nc2ccccn2c1=O)c1ccc(Cl)c(F)c1	25%	≥ 100 nM	> 80%	50%					< 1 nM	≥ 100 nM	
Cc1ccc([C@H](C)NC(=O)Cn2nc3cc(C)ccn3c2=O)cc1			> 80%	50%			50%	1 nM	< 1 nM	< 1 nM	
O=C(Cn1nc2ccc(F)cn2c1=O)NC1(c2cccc(Cl)c2)CC1	25%	≥ 100 nM	> 80%	50%					≥ 100 nM	≥ 100 nM	
C[C@H](NC(=O)Cn1nc2c(OC3CN(C)C3)nccn2c1=O)c1ccc(Cl)c(F)c1	25%	≥ 100 nM	50%	> 80%					≥ 100 nM	≥ 100 nM	
Cc1cnc2nn(CC(=O)N[C@@H](C)c3ccc(OC(F)(F)F)cc3)c(=O)n2c1	25%	≥ 100 nM	50%		1 nM				≥ 100 nM		25%
